Test results: ChEMBL document CHEMBL1147312, “1-Aryl Tetralin Lignans from Larrea tridentata” (J Nat Prod, 1989)
Active and inactive are the calls of the source. The calls are words filed in the database; no cut-off is given here.

System: Rattus norvegicus
Experiment: Anti-implantation activity in po dosed rat
Format: functional, organism-based

SMILES	Activity
C[C@H]1[C@H](c2ccc(O)c(O)c2)c2cc(O)c(O)cc2C[C@H]1C	inactive
C[C@H]1[C@H](c2ccc(O)cc2)c2cc(O)c(O)cc2C[C@H]1C	Active
